Patent US20250382344A1, “Soluble GLP1/GIP/NPY2 Receptor Triple Agonists” (Boehringer Ingelheim International GmH, priority 2024, published 2025)
pEC50: −log10 of the molar value. Read-outs that look alike come from different tables or passages of the source.

Columns and labels:
[1] = Solubility in 0.1 M phosphate buffer at pH 7; type: physicochemical; settings: 0.1 M phosphate buffer at pH 7, 10 mg/mL final peptide concentration, shaking 2 hours at room temperature, peptides as TFA-salts; measured sample pH 6.5-7.0
hGIPR = target: T1, hGIPR (Homo sapiens, UniProt P48546); experiment: hGIPR CreLuc assay in 0.5% and 100% plasma (CHO CRE-luciferase reporter cells); type: cell-based
T1 construct: expressed in transfected cells; host or cells: CHO CRE-luciferase reporter cells
T1 sequence (P48546 22-466): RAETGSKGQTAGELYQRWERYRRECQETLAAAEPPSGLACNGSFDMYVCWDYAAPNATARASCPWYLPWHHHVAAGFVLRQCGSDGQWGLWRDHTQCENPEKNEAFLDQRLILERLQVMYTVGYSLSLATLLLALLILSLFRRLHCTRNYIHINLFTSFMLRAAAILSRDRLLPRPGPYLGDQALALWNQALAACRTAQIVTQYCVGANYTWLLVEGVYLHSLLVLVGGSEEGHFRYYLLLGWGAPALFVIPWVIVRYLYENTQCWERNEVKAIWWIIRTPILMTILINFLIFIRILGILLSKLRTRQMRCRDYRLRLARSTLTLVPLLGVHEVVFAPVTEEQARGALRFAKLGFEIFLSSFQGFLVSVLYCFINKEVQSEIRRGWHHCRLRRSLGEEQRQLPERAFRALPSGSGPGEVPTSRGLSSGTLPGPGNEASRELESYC
Description: CHO and HEK-293 recombinant cell lines express a luciferase reporter gene under control of the CAMP responsive element (CRE). As a second recombinant protein the GLP-1 and NPY2 receptors were expressed in the reporter gene HEK cells, and the GIP receptor was expressed in the reporter gene CHO cells, respectively. Stimulation of these recombinant cells with an agonist leads to an increase of intracellular CAMP levels. In the presence of CAMP, the transcription factor CRE binding protein (CREB) binds to the CRE and to the CREB binding protein (CBP), which leads to transcription of the luciferase reporter gene. Peptides upon serial-dilution in 100% DMSO were transferred into 384-well assay plates with 5 μl pre-dispensed assay buffer (1×HBSS, 20 mM HEPES, pH7.4 supplemented with 0.5% human plasma) using acoustic dispensing on a Labcyte ECHO. Cryo-preserved transgenic reporter gene cells were thawed in assay buffer. 20 μl (10.000 cells/well) were added to the plate with the peptides and incubated for 4 hours at 37° C. in a humidified incubator. Following incubation, assay plates are equilibrated to room temperature, followed by addition of 25 μl of Bright-Glo™ Luciferase reagent, incubation at room temperature for 10 minutes and analysis of luminescence (Envision Reader). […] EC50 values were calculated by non-linear regression using sigmoid concentration-response with variable slope.
The same assays were run in the presence of 100% plasma with no additional buffer constituents.

[2] = 0.5% human plasma, read-out: hGIPR 0.5% hP
[3] = 100% human plasma, read-out: hGIPR 100% hP

solubility at 2 h [1] [µg/mL]	pEC50 (hGIPR; [2])	pEC50 (hGIPR; [3])	Compound	EC50 (hGIPR; hGIPR 0.5% hP (nM), 0.5% human plasma) [nM]
8400	9.70	8.25	CC[C@H](C)[C@H](NC(=O)[C@H](CC(C)C)NC(=O)[C@H](Cc1c[nH]cn1)NC(=O)[C@H](CCCNC(=N)N)NC(=O)[C@@H](NC(=O)[C@H](Cc1ccccc1)NC(=O)[C@H](C)NC(=O)C(C)(C)NC(=O)[C@H](CCC(N)=O)NC(=O)[C@H](C)NC(=O)[C@H](CCC(N)=O)NC(=O)[C@H](CCCCN)NC(=O)[C@H](CCC(=O)O)NC(=O)[C@H](CC(C)C)NC(=O)C(C)(C)NC(=O)[C@@H](NC(=O)[C@H](CO)NC(=O)[C@H](Cc1ccc(O)cc1)NC(=O)[C@H](CC(=O)O)NC(=O)[C@H](CO)NC(=O)[C@@H](NC(=O)[C@H](Cc1ccccc1)NC(=O)[C@@H](NC(=O)CNC(=O)[C@H](CCC(=O)O)NC(=O)C(C)(C)NC(=O)[C@@H](N)Cc1ccc(O)cc1)[C@@H](C)O)[C@@H](C)O)[C@@H](C)CC)C(C)C)C(=O)N[C@@H](CC(N)=O)C(=O)N[C@@H](CCCCNC(=O)CCCCCNC(=O)CC[C@H](NC(=O)CCCCCNC(=O)CC[C@H](NC(=O)CC[C@H](NC(=O)CC[C@H](NC(=O)CC[C@H](NC(=O)CCCCCCCCCCCCCCCCCCC(=O)O)C(=O)O)C(=O)O)C(=O)O)C(=O)O)C(=O)O)C(=O)NC(C)(C)C(=O)N[C@H](C(=O)N[C@@H](CCCNC(=N)N)C(=O)N[C@@H](CCC(N)=O)C(=O)N[C@@H](CCCNC(=N)N)C(=O)N[C@@H](Cc1ccc(O)cc1)C(N)=O)[C@@H](C)O [Compound 175, Y-Aib-E-G-T-F-T-S-D-Y-S-I-Aib-L-E-K-Q-A-Q-Aib-A-F-V-R-H-L-I-N-K(1,3)-Aib-T-R-Q-R-Y-NH2.C20DA-gGlu-gGlu-gGlu-gGlu-AHX-gGlu-AHX(1,2)]	–
9300	9.30	7.94	CC[C@H](C)[C@H](NC(=O)[C@H](CC(C)C)NC(=O)[C@H](Cc1c[nH]cn1)NC(=O)[C@H](CCCNC(=N)N)NC(=O)[C@@H](NC(=O)[C@H](Cc1ccccc1)NC(=O)[C@H](C)NC(=O)C(C)(C)NC(=O)[C@H](CCC(N)=O)NC(=O)[C@H](C)NC(=O)[C@H](CCC(N)=O)NC(=O)[C@H](CCC(=O)O)NC(=O)[C@H](CC(=O)O)NC(=O)[C@H](CC(C)C)NC(=O)C(C)(C)NC(=O)[C@@H](NC(=O)[C@H](CO)NC(=O)[C@H](Cc1ccc(O)cc1)NC(=O)[C@H](CC(=O)O)NC(=O)[C@H](CO)NC(=O)[C@@H](NC(=O)[C@H](Cc1ccccc1)NC(=O)[C@@H](NC(=O)CNC(=O)[C@H](CCC(=O)O)NC(=O)C(C)(C)NC(=O)[C@@H](N)Cc1ccc(O)cc1)[C@@H](C)O)[C@@H](C)O)[C@@H](C)CC)C(C)C)C(=O)N[C@@H](CC(N)=O)C(=O)N[C@@H](CCCCNC(=O)[C@@H](N)CCCCNC(=O)CC[C@H](NC(=O)CC[C@H](NC(=O)CC[C@H](NC(=O)CC[C@H](NC(=O)CC[C@H](NC(=O)CCCCCCCCCCCCCCCCCCC(=O)O)C(=O)O)C(=O)O)C(=O)O)C(=O)O)C(=O)O)C(=O)NC(C)(C)C(=O)N[C@H](C(=O)N[C@@H](CCCNC(=N)N)C(=O)N[C@@H](CCC(N)=O)C(=O)N[C@@H](CCCNC(=N)N)C(=O)N[C@@H](Cc1ccc(O)cc1)C(N)=O)[C@@H](C)O [Compound 138, Y-Aib-E-G-T-F-T-S-D-Y-S-I-Aib-L-D-E-Q-A-Q-Aib-A-F-V-R-H-L-I-N-K(1,3)-Aib-T-R-Q-R-Y-NH2.C20DA-gGlu-gGlu-gGlu-gGlu-gGlu-eLys(1,2)]	–

The next lines start with the molecule.

Compound	solubility at 2 h [1] [µg/mL]	pEC50 (hGIPR; [2])	pEC50 (hGIPR; [3])	EC50 (hGIPR; hGIPR 0.5% hP (nM), 0.5% human plasma) [nM]
CC[C@H](C)[C@H](NC(=O)[C@H](CC(C)C)NC(=O)[C@H](Cc1c[nH]cn1)NC(=O)[C@H](CCCNC(=N)N)NC(=O)[C@@H](NC(=O)[C@H](Cc1ccccc1)NC(=O)[C@H](C)NC(=O)C(C)(C)NC(=O)[C@H](CCC(N)=O)NC(=O)[C@H](C)NC(=O)[C@H](CCC(N)=O)NC(=O)[C@H](CCCCN)NC(=O)[C@H](CCC(=O)O)NC(=O)[C@H](CC(C)C)NC(=O)C(C)(C)NC(=O)[C@@H](NC(=O)[C@H](CO)NC(=O)[C@H](Cc1ccc(O)cc1)NC(=O)[C@H](CC(=O)O)NC(=O)[C@H](CO)NC(=O)[C@@H](NC(=O)[C@H](Cc1ccccc1)NC(=O)[C@@H](NC(=O)CNC(=O)[C@H](CCC(=O)O)NC(=O)C(C)(C)NC(=O)[C@@H](N)Cc1ccc(O)cc1)[C@@H](C)O)[C@@H](C)O)[C@@H](C)CC)C(C)C)C(=O)N[C@@H](CC(N)=O)C(=O)N[C@@H](CCCCNC(=O)[C@@H](N)CCCCNC(=O)CC[C@H](NC(=O)CC[C@H](NC(=O)CC[C@H](NC(=O)CC[C@H](NC(=O)CC[C@H](NC(=O)CC[C@H](NC(=O)CCCCCCCCCCCCCCCCC(=O)O)C(=O)O)C(=O)O)C(=O)O)C(=O)O)C(=O)O)C(=O)O)C(=O)N[C@H](C(=O)N[C@H](C(=O)N[C@@H](CCCNC(=N)N)C(=O)N[C@@H](CCC(N)=O)C(=O)N[C@@H](CCCNC(=N)N)C(=O)N[C@@H](Cc1ccc(O)cc1)C(N)=O)[C@@H](C)O)[C@@H](C)CC [Compound 66, Y-Aib-E-G-T-F-T-S-D-Y-S-I-Aib-L-E-K-Q-A-Q-Aib-A-F-V-R-H-L-I-N-K(1,3)-I-T-R-Q-R-Y-NH2.C18DA-gGlu-gGlu-gGlu-gGlu-gGlu-gGlu-eLys(1,2)]	5000	9.70	–	–
CC[C@H](C)[C@H](NC(=O)[C@H](CC(C)C)NC(=O)[C@H](Cc1c[nH]cn1)NC(=O)[C@H](CCCNC(=N)N)NC(=O)[C@@H](NC(=O)[C@H](Cc1ccccc1)NC(=O)[C@H](C)NC(=O)C(C)(C)NC(=O)[C@H](CCC(N)=O)NC(=O)[C@H](C)NC(=O)[C@H](CCC(N)=O)NC(=O)[C@H](CCCCN)NC(=O)[C@H](CCC(=O)O)NC(=O)[C@H](CC(C)C)NC(=O)C(C)(C)NC(=O)[C@@H](NC(=O)[C@H](CO)NC(=O)[C@H](Cc1ccc(O)cc1)NC(=O)[C@H](CC(=O)O)NC(=O)[C@H](CO)NC(=O)[C@@H](NC(=O)[C@H](Cc1ccccc1)NC(=O)[C@@H](NC(=O)CNC(=O)[C@H](CCC(=O)O)NC(=O)C(C)(C)NC(=O)[C@@H](N)Cc1ccc(O)cc1)[C@@H](C)O)[C@@H](C)O)[C@@H](C)CC)C(C)C)C(=O)N[C@@H](CC(N)=O)C(=O)N[C@@H](CCCCNC(=O)[C@@H](N)CCCCNC(=O)[C@@H](N)CCCCNC(=O)CC[C@H](NC(=O)CC[C@H](NC(=O)CC[C@H](NC(=O)CC[C@H](NC(=O)CC[C@H](NC(=O)CC[C@H](NC(=O)CCCCCCCCCCCCCCCCC(=O)O)C(=O)O)C(=O)O)C(=O)O)C(=O)O)C(=O)O)C(=O)O)C(=O)NC(C)(C)C(=O)N[C@H](C(=O)N[C@@H](CCCNC(=N)N)C(=O)N[C@@H](CCC(N)=O)C(=O)N[C@@H](CCCNC(=N)N)C(=O)N[C@@H](Cc1ccc(O)cc1)C(N)=O)[C@@H](C)O [Compound 11, Y-Aib-E-G-T-F-T-S-D-Y-S-I-Aib-L-E-K-Q-A-Q-Aib-A-F-V-R-H-L-I-N-K(1,3)-Aib-T-R-Q-R-Y-NH2.C18DA-gGlu-gGlu-gGlu-gGlu-gGlu-gGlu-eLys-eLys(1,2)]	800	9.52	8.10	–
CC[C@H](C)[C@H](NC(=O)[C@H](CC(C)C)NC(=O)[C@H](Cc1c[nH]cn1)NC(=O)[C@H](CCCNC(=N)N)NC(=O)[C@@H](NC(=O)[C@H](Cc1ccccc1)NC(=O)[C@H](C)NC(=O)C(C)(C)NC(=O)[C@H](CCC(N)=O)NC(=O)[C@H](C)NC(=O)[C@H](CCC(N)=O)NC(=O)[C@H](CCCCN)NC(=O)[C@H](CCC(=O)O)NC(=O)[C@H](CC(C)C)NC(=O)C(C)(C)NC(=O)[C@@H](NC(=O)[C@H](CO)NC(=O)[C@H](CC(C)C)NC(=O)[C@H](CC(=O)O)NC(=O)[C@H](CO)NC(=O)[C@@H](NC(=O)[C@H](Cc1ccccc1)NC(=O)[C@@H](NC(=O)CNC(=O)[C@H](CCC(=O)O)NC(=O)C(C)(C)NC(=O)[C@@H](N)Cc1ccc(O)cc1)[C@@H](C)O)[C@@H](C)O)[C@@H](C)CC)C(C)C)C(=O)N[C@@H](CC(N)=O)C(=O)N[C@@H](CCCCNC(=O)[C@@H](N)CCCCNC(=O)CC[C@H](NC(=O)CC[C@H](NC(=O)CC[C@H](NC(=O)CC[C@H](NC(=O)CC[C@H](NC(=O)CC[C@H](NC(=O)CC[C@H](NC(=O)CCCCCCCCCCCCCCCCCCC(=O)O)C(=O)O)C(=O)O)C(=O)O)C(=O)O)C(=O)O)C(=O)O)C(=O)O)C(=O)NC(C)(C)C(=O)N[C@H](C(=O)N[C@@H](CCCNC(=N)N)C(=O)N[C@@H](CCC(N)=O)C(=O)N[C@@H](CCCNC(=N)N)C(=O)N[C@@H](Cc1ccc(O)cc1)C(N)=O)[C@@H](C)O [Compound 135, Y-Aib-E-G-T-F-T-S-D-L-S-I-Aib-L-E-K-Q-A-Q-Aib-A-F-V-R-H-L-I-N-K(1,3)-Aib-T-R-Q-R-Y-NH2.C20DA-gGlu-gGlu-gGlu-gGlu-gGlu-gGlu-gGlu-eLys(1,2)]	9200	–	–	0.5
